Experiment in all cases: cells
What all share (assay type): cell-based

Experiment [1] relates to A2780/pt (resistant to tocisplatin). To be noted: after 72 hours, concentration that inhibits cell growth by 50% compared with non treated cells, read-out: IC50 (nM) ± S.E. A2780/pt (resistant to tocisplatin). The procedure: (§1) The activity of the compounds of formula I was evaluated on a large number of tumour cells expressing different resistance.
(§2) Cytotoxic activity was evaluated according to the procedure described by M. C.

Experiment [2] relates to A2780/top (resistant to topotecan). As to conditions: after 72 hours, concentration that inhibits cell growth by 50% compared with non treated cells, read-out: IC50 (nM) ± S.E. A2780/top (resistant to topotecan). The procedure:
as §1, §2

Experiment [3] has as its system MCF7-R (MDR+). As to conditions: after 72 hours, concentration that inhibits cell growth by 50% compared with non treated cells, read-out: IC50 (nM) ± S.E. MCF7-R (MDR+). On the procedure: as §1, §2
The test system of experiment [4] is A2780 (Ovarian). As to conditions: after 72 hours, concentration that inhibits cell growth by 50% compared with non treated cells, read-out: IC50 (nM) ± S.E. A2780 (Ovarian). The procedure: as §1, §2
Experiment [5] deals with Widr (colon). To be noted: after 72 hours, concentration that inhibits cell growth by 50% compared with non treated cells, read-out: IC50 (nM) ± S.E. Widr (colon). The procedure:
as §1, §2

Experiment [6] relates to MCF7 (breast). To be noted: after 72 hours, concentration that inhibits cell growth by 50% compared with non treated cells, read-out: IC50 (nM) ± S.E. MCF7 (breast). The procedure:
as §1, §2

In experiment [7] the test system is A2780/dx (Pgp+). To be noted: after 72 hours, concentration that inhibits cell growth by 50% compared with non treated cells, read-out: IC50 (nM) ± S.E. A2780/dx (Pgp+). The procedure:
as §1, §2

Read-outs that look alike come from different tables or passages of the source.

Take “3,5-Benzenedicarboxylic acid bis-(N-deacetylthiocolchicine)amide [E.g. 3]”: the IC50 in experiment [1] came to 23 ± 4.6 nM; in experiment [2], 5.5 ± 0.1 nM; in experiment [3], 108 ± 14 nM; in experiment [4], 8 ± 5.6 nM; in experiment [5] it was 48 ± 24 nM; in experiment [6], 1.5 ± 0.1 nM.

Regarding `COc1cc2c(c(OC)c1OC)-c1ccc(SC)c(=O)cc1[C@@H](NC(=O)c1cncc(C(=O)N[C@H]3CCc4cc(OC)c(OC)c(OC)c4-c4ccc(SC)c(=O)cc43)c1)CC2` [E.g. 1, 3,5-Pyridinedicarboxylic acid bis-(N-deacetylthiocolchicine)amide], the IC50 stood at 3.7 ± 0.6 nM in experiment [1] (Homo sapiens, A2780); 6.9 ± 4.2 nM in experiment [2] (Homo sapiens, A2780); 72 ± 4.3 nM in experiment [3] (Homo sapiens, MCF7R); 3 ± 0.4 nM in experiment [4] (Homo sapiens, A2780); 25 ± 26.4 nM in experiment [5] (Homo sapiens, WiDr); 0.7 ± 0.1 nM in experiment [6] (Homo sapiens, MCF7). Further, in experiment [7], the IC50 worked out at 806 ± 286 nM.

On to “N-Deacetylthiocolchicine 1,4-phenylenediamine bis-urea [E.g. 4]”, for which the IC50 in experiment [1] was determined as 331 ± 63 nM; in experiment [2], 152 ± 36 nM; in experiment [4], 252 ± 38 nM; in experiment [5], 650 ± 40 nM.

Turning to “trans-1,4-Cyclohexanedicarboxylic acid bis-(N-deacetylthiocolchicine)amide [E.g. 2]”, the IC50 in experiment [1] worked out at 26 ± 1 nM; in experiment [2] it was 32 ± 24 nM; in experiment [3], 135 ± 11 nM; in experiment [4], 37 ± 5 nM; in experiment [5] it was 230 ± 166 nM; in experiment [6], 14 ± 0.9 nM.

(Values after patent US7582639B2, “N-deacetylthiocolchicine derivatives, their use and pharmaceutical formulations containing them” (priority 2004, dated 2009).)
